In brackets after ≈: the same amount, converted by molar mass. Like-named read-outs stand apart in the source and are kept apart here.
Experiments:
hNox4 = hNox4 (Homo sapiens (Human), UniProt Q9NPH5); assay: Amplex Red assay of intact Nox4 expressing HEK293 cells; assay type: cell-based
Description: (§1) HEK293 overexpressing Nox4 (CJ Nox4) cells were purchased from Redoxis, Lund, Sweden. HEK 293 cells expressing Nox5, Nox3 (HEK TRex) and CHO cells expressing Nox1, were a kind gift from Vincent Jaque Center Medical Universitaire, Geneva, Switzerland. Nox2 expressed in isolated neutrophils were isolated from whole blood (human), as previously described (Anvari E, et al., Free Radic Res 2015; 49:1308-1318).
HEK293 cells (CJ Nox4) were cultured in RPMI 1640 with Glutamax supplemented with FBS (10%), penicillin (100 U/ml) and streptomycin […] at 37° C. in air with 5% CO2. Every third passage 200 µg/ml neomycin were supplied in growth medium as selective agent.
(§2) Reactive oxygen produced in whole cells or in membrane preparation of Nox1, Nox3, Nox4, Nox5 and xanthine oxidase and glucose oxidase were determined using Amplex Red as detection probe of formed H2O2. Amplex Red (10-acetyl-3,7-dihydroxyphenoxazine) in combination with HRP and co-factors reacts with H2O2 in a 1:1 stoichiometry to form a highly fluorescent resorufin excitated at 544 nm producing emission at 590 nm.
(§3) Adherent cells (CHO, HEK) were collected by trypsinization, centrifuged, washed with HBSS, counted, and resuspended in HBSS. Cells were seeded in 96-well black flat bottom plates at a density of 50,000-100,000 cells/well. All compounds were dissolved in DMSO and concentrations ranging from 0.003 to 200 μM were tested in Nox cellular assays with a final concentration of DMSO of 1%. Cells were incubated at 37° C. with the compounds for 30 minutes before measurement. Cells expressing Nox1 and Nox2 were activated with the PKC activator PMA (0.1 μM). Nox5 was activated with the Ca2+ ionophore ionomycin (1 μM) and further enforced with PMA. The CJ HEK 293 cells overexpressed Nox4 constitutively. In the HTS screen HEK 293 TRex was used and tetracycline ([…]) was added 18 h before measurement to induce Nox4 expression. Production of hydrogen peroxide by Nox in intact cells was measured using Amplex Red fluorescence as described by Jaquet V, et al., Br J Pharmacol 2011; 164:507-520. Assay reagents including HRP ([…]) and Amplex Red (50 μM) were added to initiate production of hydrogen peroxide. Fluorescence was read in a fluorescence plate reader at 37° C. every minute between 30-60 minutes.

[1] = Microsomal metabolic stability, human; assay type: in vitro ADME; conditions: pooled liver microsomes, pH 7.4, read-out: Metab. stab, human t1/2
Description: (§4) The microsomal metabolic stability assay utilizes pooled human, or animal (mouse) species, liver microsomes with supplemented cofactor (NADPH) to primarily facilitate cytochrome P450 (CYP) reactivity against target compound. Test compound (1 μM incubation concentration) and microsomes (0.5 mg/ml incubation concentration) were diluted in 0.1 M phosphate buffer, pH 7.4, in a volume of 150 μl. The reaction was initiated with addition of NADPH (1 mM). The incubation times were 0, 5, 15, 40 min and the reaction was quenched, at each time point, by addition of 100 μl acetonitrile containing Warfarin as IS. The plate was then sealed, centrifuged and frozen at −20 C until LC-MS/MS analysis.

[2] = Plasma protein binding, human; assay type: in vitro ADME; conditions: 10 μM in plasma, equilibrium dialysis 4 h, read-out: fu % human plasma protein
Description: (§5) Example compounds were incubated at 10 μM in plasma and then equilibrium dialysed for 4 h, using a rapid equilibrium device. Protein binding (fu %) was determined by LS/MS as previously described (Anvari E, et al., vide supra).

[3] = Determination of solubility; assay type: physicochemical; conditions: 10 mM potassium phosphate buffer, aqueous buffer, kinetic from dmso stock; 10 mM potassium phosphate pH 7.4, 24 h, room temperature; read-out: Kinetic solub.
Description: Two μl of test compound (from 10 mM DMSO stock) were diluted 100× in 10 mM potassium phosphate pH 7.4 in a HPLC glass vial, sealed and incubated for 24 h under rotation (900 rpm) at room temperature. After the incubation 150 μl were transferred to conical glass inserts and centrifuged for 20 min at 10,000×g. Two μl of the supernatant were transferred to a 96-well plate, diluted 100× with acetonitrile/H2O (60/40, vol/vol) and analyzed by LC-MS/MS.

[4] = Plasma protein binding, mouse; assay type: in vitro ADME; conditions: 10 μM in plasma, equilibrium dialysis 4 h, read-out: fu % mouse plasma protein
Description: as §5

[5] = Microsomal metabolic stability, mouse; assay type: in vitro ADME; conditions: pooled liver microsomes, pH 7.4, read-out: Metab. stab, mouse t1/2
Description: as §4

[6] = Determination of chemical stability; assay type: physicochemical
Description: Test compound was pipetted into an HPLC vial, from 10 mM DMSO, to yield 2 μM final concentration in three separate vials containing buffers with different pH. At reaction start the three different buffers were mixed with isopropanol (1:2, buffer:isopropanol). The buffers used were: pH 2 (H3PO4/KH2PO4 10 mM), pH 7.4 (KH2PO4/K2HPO4 10 mM) and pH 10 (Glycine/NaOH 10 mM). Immediately (<1 minute) after buffer or buffer/isopropanol addition, a 100 μl aliquot was added to a separate plate containing 100 μl acetonitrile:H2O (60:40) and Warfarin (internal standard, IS), sealed and frozen at −20° C. This test was made for 2 h and 20 h. Analysis was performed on a XEVO TQ mass spectrometer coupled to an Acquity UPLC system in ESI^+MRM mode, separation on a BEH C18 2×50 mm column.

Nox5 = Nox5 (Homo sapiens (Human), UniProt Q96PH1); assay: Amplex Red assay of Nox5 expressing HEK cells; assay type: cell-based; parameters: key: The sign “—” stands for “inactive”
Sequence of Nox5 (Q96PH1 whole entry): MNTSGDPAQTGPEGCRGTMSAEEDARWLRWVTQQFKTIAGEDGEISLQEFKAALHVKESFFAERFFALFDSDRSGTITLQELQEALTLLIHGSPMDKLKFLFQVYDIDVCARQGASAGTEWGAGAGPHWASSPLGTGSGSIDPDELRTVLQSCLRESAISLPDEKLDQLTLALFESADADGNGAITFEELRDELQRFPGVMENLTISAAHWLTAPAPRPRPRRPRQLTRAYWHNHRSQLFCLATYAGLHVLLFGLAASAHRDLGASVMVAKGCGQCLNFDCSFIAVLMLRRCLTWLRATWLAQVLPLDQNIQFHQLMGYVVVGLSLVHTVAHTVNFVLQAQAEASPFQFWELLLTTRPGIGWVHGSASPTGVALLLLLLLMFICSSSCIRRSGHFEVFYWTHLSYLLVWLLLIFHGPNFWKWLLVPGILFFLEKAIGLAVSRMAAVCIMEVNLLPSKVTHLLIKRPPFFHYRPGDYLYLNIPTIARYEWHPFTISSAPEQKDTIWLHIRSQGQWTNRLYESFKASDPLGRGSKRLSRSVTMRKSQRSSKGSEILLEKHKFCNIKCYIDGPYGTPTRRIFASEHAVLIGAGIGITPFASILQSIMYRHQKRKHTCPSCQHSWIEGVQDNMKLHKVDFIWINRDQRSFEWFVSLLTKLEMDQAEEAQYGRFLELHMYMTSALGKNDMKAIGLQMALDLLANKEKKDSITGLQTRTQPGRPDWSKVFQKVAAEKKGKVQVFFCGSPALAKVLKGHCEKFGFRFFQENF
Text: as §1
HEK293T cells expressing tetracycline-inducible human (Nox3 or Nox4) and HEK293 cells stably expressing human Nox5 were generated as described previously (Serrander et al., 2007a,b). HEK cells were cultured in Dulbecco's modified Eagle medium (DMEM) with 4.5 g/l glucose, supplemented with FBS (10%), penicillin (100 U/ml) and streptomycin […] at 37° C. in air with 5% CO2.
as §2, §3

[7] = read-out: IC50 on hNox4 in recombinant cells

Sequence of hNox4 (Q9NPH5 whole entry): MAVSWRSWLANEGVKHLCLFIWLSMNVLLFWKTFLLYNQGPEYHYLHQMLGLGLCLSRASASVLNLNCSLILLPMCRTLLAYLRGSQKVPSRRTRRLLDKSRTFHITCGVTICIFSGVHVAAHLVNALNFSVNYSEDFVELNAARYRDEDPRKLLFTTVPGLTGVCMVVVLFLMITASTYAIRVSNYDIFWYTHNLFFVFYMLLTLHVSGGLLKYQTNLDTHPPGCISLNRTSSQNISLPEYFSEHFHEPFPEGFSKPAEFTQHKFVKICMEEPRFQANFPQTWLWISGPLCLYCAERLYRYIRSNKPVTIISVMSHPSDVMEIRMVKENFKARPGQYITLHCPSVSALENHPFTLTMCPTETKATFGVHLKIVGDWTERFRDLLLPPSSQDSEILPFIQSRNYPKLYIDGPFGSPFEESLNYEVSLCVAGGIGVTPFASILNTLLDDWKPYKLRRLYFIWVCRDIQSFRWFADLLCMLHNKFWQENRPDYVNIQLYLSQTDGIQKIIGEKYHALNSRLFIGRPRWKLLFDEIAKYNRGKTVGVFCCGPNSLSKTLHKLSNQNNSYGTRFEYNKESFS
Sequence of hNox4 (P13498 2-195 partner): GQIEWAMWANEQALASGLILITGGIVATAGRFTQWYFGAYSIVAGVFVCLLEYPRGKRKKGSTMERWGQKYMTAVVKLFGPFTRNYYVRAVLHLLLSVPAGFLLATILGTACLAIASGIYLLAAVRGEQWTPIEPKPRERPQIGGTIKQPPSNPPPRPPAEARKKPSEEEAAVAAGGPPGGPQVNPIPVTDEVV

| SMILES | IC50 (hNox4; read-out: IC50 Nox4) [nM] | half-life at 1 μM [1] [min] | fraction unbound at 4 h, 10 μM [2] | solubility kinetic at 24 h [3] [µM] | fraction unbound at 4 h, 10 μM [4] | half-life at 1 μM [5] [min] | Chem. stab. pH 7.4 [6] | IC50 Nox5 (Nox5) | IC50 (hNox4; [7]) [nM] |
| --- | --- | --- | --- | --- | --- | --- | --- | --- | --- |
| Cc1ccccc1C(F)CNS(=O)(=O)c1c(Cl)cc(Br)cc1Cl (racemic) [Example 35, 4-bromo-2,6-dichloro-N-[2-fluoro-2-(2-methylphenyl)ethyl]benzene-1-sulfonamide] | 1700 | 11 to 13 | 0.0002 | 4.5 (≈ 1.99 µg/mL) | 0.0002 | 6 to 20 | stable | — |  |
| O=S(=O)(NCCc1ccccc1O)c1c(Cl)cc(Br)cc1Cl [Example 38, 4-bromo-2,6-dichloro-N-[2-(2-hydroxyphenyl)ethyl]benzenesulfonamide] | 300 | 9 to 11 | 0.0062 | 77 (≈ 32.7 µg/mL) | 0.0056 | 2 to 4 | stable | — |  |
| Cc1ccccc1CCNS(=O)(=O)c1c(C)cccc1Cl [Example 11, 2-chloro-6-methyl-N-[2-(2-methylphenyl)ethyl]benzene-1-sulfonamide] | 2400 |  |  |  |  |  |  | — | 2400 |
| O=S(=O)(NCCc1ccccc1Cl)c1c(Cl)cc(C2CC2)cc1Cl [Example 26, 2,6-dichloro-N-[2-(2-chlorophenyl)ethyl]-4-cyclopropylbenzene-1-sulfonamide] | 360 |  |  |  |  |  |  | — | 360 |
| Cc1cc(Cl)c(S(=O)(=O)NCCc2ccccc2O)c(C)c1O [Example 44, 6-chloro-3-hydroxy-N-[2-(2-hydroxyphenyl)ethyl]-2,4-dimethyl-benzenesulfonamide] | 2400 | 36 | 0.015 | 94 (≈ 33.4 µg/mL) | 0.025 | 7 | stable | — |  |
| Cc1cc(C)c(S(=O)(=O)NCCc2ccccc2O)c(C)c1 [Example 37, N-[2-(2-hydroxyphenyl)ethyl]-2,4,6-trimethylbenzene-1-sulfonamide] | 800 | 6 to 10 | 0.011 | > 100 | 0.0056 | 2 to 4 | stable | — |  |
| Cc1ccccc1CCNS(=O)(=O)c1c(Cl)cc(Br)cc1Cl [Example 17, 4-bromo-2,6-dichloro-N-[2-(2-methylphenyl)ethyl]benzene-1-sulfonamide] | 270 | 3 to 4 | 0.0002 | 0.16 (≈ 0.0677 µg/mL) | 0.0004 | 2 to 3 | stable | — | 270 |
| Cc1cc(O)cc(C)c1S(=O)(=O)NCCc1ccccc1O [Example 48, 4-hydroxy-N-[2-(2-hydroxyphenyl)ethyl]-2,6-dimethyl-benzenesulfonamide] | 22000 | 69 | 0.011 | 97 (≈ 31.2 µg/mL) | 0.005 | 16 | stable | — |  |
| COc1cc(C)c(S(=O)(=O)NCCc2ccccc2Cl)c(C)c1 [Example 46, N-[2-(2-chlorophenyl)ethyl]-4-methoxy-2,6-dimethyl-benzenesulfonamide] | 300 | 2 | 0.0026 | 16 (≈ 5.66 µg/mL) | 0.0021 | 2 | stable | — |  |
| COc1cc(C)c(S(=O)(=O)NCCc2ccccc2O)c(C)c1 [Example 47, N-[2-(2-hydroxyphenyl)ethyl]-4-methoxy-2,6-dimethyl-benzenesulfonamide] | 1600 | 14 | 0.03 | > 100 | 0.017 | 1 | stable | — |  |

Source: patent publication US12202790B2, “Sulfonamide derivatives having selective Nox inhibiting activity” (GLUCOX BIOTECH AB, priority 2018, dated 2025)
